According to ChEMBL document CHEMBL3414562, “Synthesis of isocryptolepine analogues and their structure-activity relationship studies as antiplasmodial and antiproliferative agents” (Eur J Med Chem, 2015):

Tests used:
Plasmodium falciparum [1] = experiment: microbe, parasite or virus in culture; conditions: SKF58
MRC5 [2] = experiment: Cytotoxicity against human MRC5 cells by MTT assay; format: cell-based
Plasmodium falciparum [3] = experiment: microbe, parasite or virus in culture; conditions: SRIV35
[4] = Selectivity index, ratio of IC50 for human MRC5 cells to IC50 for chloroquine-resistant Plasmodium falciparum K1; format: toxicity, cell-based; conditions: read-out: Ratio IC50
[5] = Selectivity index, ratio of IC50 for human MRC5 cells to IC50 for chloroquine/mefloquine-resistant Plasmodium falciparum SKF58; format: toxicity, cell-based; conditions: read-out: Ratio IC50
HepG2 = experiment: Cytotoxicity against human HepG2 cells by MTT assay; format: functional, cell-based
[6] = Cytotoxicity against human HuCCa1 cells by MTT assay; format: functional, cell-based; conditions: HuCC-A1
[7] = Selectivity index, ratio of IC50 for human MRC5 cells to IC50 for human HuCCa1 cells; format: functional
Plasmodium falciparum [8] = experiment: microbe, parasite or virus in culture; conditions: 3D7
Description: Antiplasmodial activity against chloroquine-sensitive Plasmodium falciparum 3D7

[9] = Selectivity index, ratio of IC50 for human MRC5 cells to IC50 for chloroquine/mefloquine-resistant Plasmodium falciparum SRIV35; format: toxicity, cell-based; conditions: read-out: Ratio IC50
A549 = experiment: Cytotoxicity against human A549 cells by MTT assay; format: functional, cell-based
MRC5 [10] = experiment: Cytotoxicity against human MRC5 cells at 144667 nM by MTT assay relative to control; format: cell-based; conditions: mrc5, 144.667 µM
[11] = Selectivity index, ratio of IC50 for human MRC5 cells to IC50 for […]; format: toxicity, cell-based; conditions: read-out: Ratio IC50
[12] = Cytotoxicity against human MOLT3 cells by XTT assay; format: functional, cell-based; conditions: MOLT-3
Plasmodium falciparum [13] = experiment: microbe, parasite or virus in culture; conditions: K1
Description: Antiplasmodial activity against chloroquine-resistant Plasmodium falciparum K1

MRC5 [14] = experiment: Cytotoxicity against human MRC5 cells at 72014 nM by MTT assay relative to control; format: cell-based; conditions: mrc5, 72.014 µM
MRC5 [15] = experiment: Cytotoxicity against human MRC5 cells at 131866 nM by MTT assay relative to control; format: cell-based; conditions: mrc5, 131.866 µM
MRC5 [16] = experiment: Cytotoxicity against human MRC5 cells at 137509 nM by MTT assay relative to control; format: cell-based; conditions: mrc5, 137.509 µM
MRC5 [17] = experiment: Cytotoxicity against human MRC5 cells at […] uM by MTT assay relative to control; format: cell-based; conditions: mrc5, 91.99 µM

| SMILES | IC50 (Plasmodium falciparum [1]) [µM] | IC50 (MRC5 [2]) [µM] | IC50 (Plasmodium falciparum [3]) [µM] | selectivity ratio [4] | selectivity ratio [5] | IC50 (HepG2) [µM] | IC50 [6] [µM] | Ratio IC50 [7] | IC50 (Plasmodium falciparum [8]) [µM] | selectivity ratio [9] | IC50 (A549) [µM] | Activity (MRC5 [10]) [%] | selectivity ratio [11] | IC50 [12] [µM] | IC50 (Plasmodium falciparum [13]) [µM] | Activity (MRC5 [14]) [%] | Activity (MRC5 [15]) [%] | Activity (MRC5 [16]) [%] | Activity (MRC5 [17]) [%] |
| --- | --- | --- | --- | --- | --- | --- | --- | --- | --- | --- | --- | --- | --- | --- | --- | --- | --- | --- | --- |
| Cn1cc2c3cc(Br)ccc3nc-2c2cc(Cl)ccc21 | 0.162 | > 145 | 0.171 | > 623 | > 893 | 4.83 | 30.8 | >4.7 | 0.182 | > 845 | 7.03 | 40.45 | > 796 | 0.75 | 0.232 |  |  |  |  |
| Cn1cc2c3cc(Br)ccc3nc-2c2cc(F)ccc21 | 0.132 | 122 | 0.211 | 650 | 921 | 3.65 | 15 | 8.14 | 0.119 | 577 | 13.2 |  | 1020 | 0.88 | 0.188 |  |  |  |  |
| Cn1cc2c3ccccc3nc-2c2cc(Cl)ccc21 | 0.228 | 10.4 | 0.217 | 32.5 | 45.7 | 0.64 | 6.45 | 1.62 | 0.221 | 48 | 1.5 |  | 47.1 | 0.52 | 0.321 |  |  |  |  |
| Cn1cc2c3cc(F)ccc3nc-2c2cc(Cl)ccc21 | 0.177 | 4.04 | 0.176 | 14.1 | 22.8 | 0.81 | 9.48 | 0.43 | 0.166 | 22.9 | 7.9 |  | 24.4 | 0.74 | 0.288 |  |  |  |  |
| Cn1cc2c3cc(Cl)ccc3nc-2c2cc(Cl)ccc21 | 0.13 | 25.2 | 0.156 | 110 | 194 | 7.9 | 13.2 | 1.9 | 0.172 | 162 | 30.2 |  | 146 | 0.93 | 0.229 |  |  |  |  |
| Cc1cc(Br)cc2c3cn(C)c4ccc(Cl)cc4c-3nc12 | 0.0926 | 5.43 | 0.0867 | 37.8 | 59.2 | 1.39 | 6.15 | 0.89 | 0.095 | 63.2 | 2.34 |  | 57.7 | 1.17 | 0.145 |  |  |  |  |
| COc1ccc2nc3c4cc(Cl)ccc4n(C)cc-3c2c1 | 0.207 | 3.1 | 0.209 | 7.52 | 13.8 | 2.19 | 10.4 | 0.28 | 0.211 | 13.7 | 6.98 |  | 13.5 | 2.9 | 0.38 |  |  |  |  |
| Cn1cc2c3ccc4ccccc4c3nc-2c2cc(Cl)ccc21 | 0.134 | 2.62 | 0.126 | 24.1 | 34.3 | 0.76 | 1.55 | 2.96 | 0.136 | 36.3 | 1.2 |  | 33.6 | 1.55 | 0.19 |  |  |  |  |
| Cn1cc2c3ccccc3nc-2c2cccc(Cl)c21 | > 2 | 12.4 | > 2 |  |  | 2.62 | 21 | 0.59 | > 2 |  | 8.59 |  |  | 1.27 | > 2 |  |  |  |  |
| Cn1cc2c3cc(Br)ccc3nc-2c2cccc(Cl)c21 | > 2 | 3.15 | > 2 |  |  | 2.55 | 4.92 | 0.64 | > 2 |  | 5.5 |  |  | 0.78 | > 2 |  |  |  |  |
| Cc1cccc2c3nc4ccccc4c-3cn(C)c12 | 1.57 | 39.5 | 1.57 | 22.2 | 24.6 | 2.6 | 16.6 | 2.33 | 1.57 | 24.6 | 11.1 |  | 24.6 | 2.92 | 1.74 |  |  |  |  |
| Cn1cc2c3cc(Br)ccc3nc-2c2cccc(F)c21 | 0.243 | 15.3 | 0.235 | 51.8 | 63 | 3.22 | 4.48 | 3.42 | 0.178 | 65.2 | 6.17 |  | 86.1 | 1.09 | 0.296 |  |  |  |  |
| Cn1cc2c3cc(Br)ccc3nc-2c2ccc(F)cc21 | 0.0924 | 26.3 | 0.083 | 425 | 284 | 7.41 | 10.2 | 2.58 | 0.0379 | 317 | 7.97 |  | 693 | 1.26 | 0.0618 |  |  |  |  |
| Cn1cc2c3cc(Br)ccc3nc-2c2ccc(F)c(F)c21 | 9.87 | > 72 | > 2 | > 53.2 | > 7.3 |  | 42.7 | >1.68 | 0.29 |  | 25 |  | > 248 | 17.4 | 1.35 | 32.6 |  |  |  |
| Cn1cc2c3cc(Br)ccc3nc-2c2cc(C(F)(F)F)ccc21 | 1.22 | > 132 | 0.929 | > 96.4 | > 108 | 75.6 | 7.44 | >17.72 | 0.579 | > 142 | 105 |  | > 228 | 35 | 1.37 |  | 35.85 |  |  |
| Cn1cc2c3cc(Br)ccc3nc-2c2cc(OC(F)(F)F)ccc21 | 0.108 | 86.6 | 0.108 | 1280 | 799 | 8.2 | 7.01 | 12.36 | 0.0577 | 804 | 8.46 |  | 1500 | 2.6 | 0.0679 |  |  |  |  |
| Cn1cc2c3cc(Br)ccc3nc-2c2cc(F)cc(Cl)c21 | > 2 | 108 | > 2 |  |  | 3.47 | 8 | 13.5 | > 2 |  | 35.9 |  |  |  | > 2 |  |  |  |  |
| Cn1cc2c3cc(Br)ccc3nc-2c2cc(Cl)cc(F)c21 | 1.4 | > 138 | 1.4 | > 101 | > 97.9 | 8.76 | 11.4 | >12.07 | 0.758 | > 98.2 |  |  | > 181 | 55.7 | 1.36 |  |  | 34 |  |
| C[C@H]1[C@H](OC(=O)CCC(=O)O)O[C@@H]2O[C@@]3(C)CC[C@H]4[C@H](C)CC[C@@H]1[C@@]24OO3 [ARTESUNATE] | 0.01 |  | 0.0041 |  |  |  |  |  | 0.0042 |  |  |  |  |  | 0.0035 |  |  |  |  |
| COc1cccc2c1C(=O)c1c(O)c3c(c(O)c1C2=O)C[C@@](O)(C(=O)CO)C[C@@H]3O[C@H]1C[C@H](N)[C@H](O)[C@H](C)O1 [DOXORUBICIN] |  | > 92 |  |  |  | 0.4 | 2.39 |  |  |  |  |  |  |  |  |  |  |  | 37.13 |
| COc1cc([C@@H]2c3cc4c(cc3[C@@H](O[C@@H]3O[C@@H]5CO[C@@H](C)O[C@H]5[C@H](O)[C@H]3O)[C@H]3COC(=O)[C@H]23)OCO4)cc(OC)c1O [ETOPOSIDE] |  |  |  |  |  | 40.5 |  |  |  |  |  |  |  | 0.11 |  |  |  |  |  |
| Cn1cc2c3ccccc3nc-2c2ccccc21 [ISOCRYPTOLEPINE] | 0.41 | 8.35 | 0.463 | 10.7 | 20.4 | 0.73 | 1.81 | 4.62 | 0.585 | 18 | 1.21 |  | 14.3 | 0.73 |  |  |  |  |  |
| OC(c1cc(C(F)(F)F)nc2c(C(F)(F)F)cccc12)C1CCCCN1 (stereo not drawn) [MEFLOQUINE] |  |  | 0.065 |  |  |  |  |  |  |  |  |  |  |  |  |  |  |  |  |
| C=C[C@H]1CN2CC[C@H]1C[C@H]2[C@H](O)c1ccnc2ccc(OC)cc12 [QUININE] | 0.199 |  | 0.431 |  |  |  |  |  | 0.08 |  |  |  |  |  | 0.113 |  |  |  |  |
